“Also recorded” adds a separate entry of the source.
Experiments:
CCND2 promoter = assay: CCND2 promoter-luciferase transactivation assay in NIH3T3 cells with or without c-maf; assay type: cell-based, mouse
Experimental: Using this assay, Lopac (n=1280), Prestwick (n=1120), and Spectrum (n=2000) libraries of drugs and natural compounds were screened. In a parallel MTS assay, the effect of each compound on 3T3 viability was determined, allowing exclusion of compounds that caused secondary suppression of CCND2 due to non-specific cytotoxicity. […] These included monensin, patulin, β-lapachone, camptothecin, dihydrogambogic acid, gentian violet, thapsigargin, brefeldin A, pristimerin, and kinetin riboside.
Full-length c-maf cDNA was subcloned into an IRES-GFP MIEV retroviral vector and introduced into NIH3T3 cells by infection. Stable clones expressing GFP and c-maf were selected by flow cytometry and immunoblotting, respectively. The promoter of human cyclin D2 (−894 to −4; Brooks et al., J. Biol. Chem., 271, 9090-9 (1996)), containing c-maf responsive element sequence (MARE), was cloned from DNA from HeLa cells and inserted into the pGLbasic firefly luciferase vector (Promega, Madison, Wis.) immediately upstream of the luciferase gene. This construct was co-transfected with pcDNA3 (containing a neomycin resistance gene) into both NIH3T3 wild type cells and NIH3T3 cells stably over-expressing c-maf-IRES-GFP. Cells stably expressing c-maf, GFP, and luciferase were selected.
NIH3T3 cells stably expressing c-maf and the CCND2 promoter driving luciferase (13,000 cells per well) were plated in 96-well plates by a Biomek FX liquid handler (Beckman, Fullerton, Calif.). After the cells had adhered, they were treated with aliquots of molecules from LOPAC (Sigma, St. Louis, Mo.), Prestwick (Prestwick Chemical Inc, Illkirch, France) or Spectrum (Microsource Discovery Systems, Gaylordsville, Conn.) libraries of off-patent drugs and chemicals at a final concentration of ˜5 μM and <0.1% DMSO. Cells were incubated with compounds at 37° C. for 16 hours.
Luciferase assay. Luciferase activity was assessed according to the manufacturer's instructions (Promega, Madison, Wis.). Briefly, the cell culture medium was removed using an EMBLA plate washer (Molecular Devices, X) and Glo Lysis buffer (Promega) was added by robot. After a 10-minute incubation, an equal volume of Bright-Glo Luciferase substrate (Promega) was added, and luminescence signal was detected with a 96-well Luminoskan luminescence plate reader (Thermo Labsystem, Waltham, Mass.) using a 5 second integration.
Studies of kinetin riboside using 3T3-D2-luc cells. To examine CCND2 suppression induced by kinetin riboside, the reporter cells were exposed to kinetin riboside in combination with other drugs (all purchased from Sigma, St. Loius, Mo.) that influence CCND2 transcription or inhibit nucleoside transport or phosphorylation. NIH3T3 cells expressing the CCND2 promoter driving luciferase were incubated with kinetin riboside or vehicle control +/− forskolin, 4-(3-butoxy-4-methoxybenzyl)imidazolidin-2-one (BMBI), cantharadin, S-(4-Nitrobenzyl)-6-thioinosine (NBTI), or A-134974, as specified at 5 μM concentration for 16 hours at 37° C. […] Forskolin is a cell-permeable diterpenoid that activates adenylate cyclase resulting in increased cAMP concentration. BMBI (Sigma B8279) is an inhibitor of cAMP phosphodiesterase that also causes accumulation of cAMP. Cantharadin (C7632) is an inhibitor of protein phosphatase 2A and, from the library screen, mediates induction of CCND2. NBTI (Sigma N2255) is a potent adenosine uptake inhibitor, and A-134974 (Sigma A2846) is a selective inhibitor of adenosine kinase.
In an optimized automated assay, NIH3T3 cells over-expressing c-maf and the human cyclin D2 promoter driving luc were plated in 96-well plates by robot and following adhesion were treated for 16 hours with compounds at a final concentration of ˜5 μM and <0.1% DMSO. As a control, cells were treated with buffer alone. […] Thus, each compound from the library was tested in at least two assays—luciferase for CCND2 activity and MTS for viability. The coefficient of variance (CV) of the assay was <10%.

My5 tumors = assay: My5 myeloma xenograft in nude mice; assay type: in vivo; settings: for effect on My5 tumors: 85 mg/kg/dose
Experimental: FIG. 14. Kinetin riboside induces tumor growth arrest in My5 and 8226 myeloma tumor xenografts. (A) Matched pairs of nude mice bearing My5 tumors were treated intra-peritoneally (i.p.) with vehicle control (□) or with kinetin riboside (▪) at escalating dose-density from 100 mg/kg once daily to 85mg/kg 5×/daily, administered 5 days per week, commencing after mean tumor volume reached 135mm^3. Mean tumor volumes±SEM are shown from the time of xenografting (n=4/group). (B) Nude mice bearing 8226 tumors were treated with vehicle (□) or with kinetin riboside (▪) (n=4/group), commencing at 85 mg/kg QID (i.p. and s.c.) when the mean tumor volume exceeded 135 mm^3.
Female nude X-linked immune-deficient (BNX) mice purchased from NCI-Frederick were used for in vivo studies. Animals had access to food and water ad libitum and were handled in accordance with animal care and use guidelines. Eight-week-old mice were inoculated with My5 or 8226 (2×10^7) MM cells subcutaneously (s.c.) in the right flank. Kinetin riboside (pre-dissolved in DMSO at 500 mg/mL and stored at −20° C.) was formulated daily by dropwise dissolution to 3.7 mg/mL in pre-warmed (37° C.) 0.9% saline, 1% β2-hydroxypropylcyclodextrin (Sigma) solution and was administered 1×-5× daily at 85 mg/kg/dose. The first dose daily was given intraperitoneally and remaining doses were given s.c. with increasing dosing intervals (30, 60, 120, 180 minutes). Tumor volumes were measured using vernier calipers and calculated with the formula L×W×H×2/3. P-values were calculated by paired t-test (JMP 6.0, SAS; Cary, N.C.).

H929 and U266 HMCL = assay: Gene expression profiling (Affymetrix) of H929 and U266; assay type: cell-based, human; settings: 5 μM, 4 hours
Experimental: Gene expression profiling. H929 and U266 HMCL were treated with kinetin riboside (5 μM), an unrelated cytotoxic pristimerin (0.5 μM), or DMSO vehicle for 4 hours under normal culture conditions. RNA was then isolated using Trizol and further purified by Qiagen column, according to the manufacturer's instructions and was assessed using a BioAnalyzer 2100 (Agilent Technologies, Palo Alto, Calif.). Microarray hybridization using Affymetrix Hg_U133—2+ chips (Affymetrix, Santa Clara, Calif.) was performed as described elsewhere (Abraham et al., Blood 105, 794-803 (2005)). Gene expression intensity values were log transformed, normalized by chip and by cell line to DMSO-control treated samples and analyzed using GeneSpring 7 (Agilent Technologies, Palo Alto, Calif.). Expression values were filtered by raw intensity level to exclude non-expressed probe-sets with raw expression within one log (10) of the minimum level observed. Only probe sets with sub-threshold intensities in all samples (treated and untreated) were excluded.
Analysis of CREM gene variant transcript expression. […]

## OC[C@H]1O[C@@H](n2cnc3c(NCc4ccco4)ncnc32)[C@H](O)[C@@H]1O [kinetin riboside, N6-Furfuryladenosine]
CCND2 promoter; NIH3T3
  time course of suppression of CCND2-driven luciferase: rapid suppression of CCND2 transactivation
CCND2 promoter; NIH3T3 CCND2-luc with or without c-maf
  suppression of CCND2 promoter in absence or presence of c-maf: c-maf independent specific suppression of the CCND2 promoter
CCND2 promoter; co-incubation, 5 μM, 16 hours
  effect on BMBI-induced CCND2 transactivation: effectively blocked
  effect on Forskolin-induced CCND2 transactivation: blocked
  effect on cantharadin-induced CCND2 transactivation: abolished
CCND2 promoter; ~5 μM, 16 hours, hit = 50% or more reduction in luciferase relative to cell viability
  identified as putative inhibitor of CCND2 transactivation (screen hit): putative CCND2 inhibitors; also recorded: putative suppressors of CCND2
My5 tumors; 4× daily dosing
  effect on My5 tumors: tumor stasis
My5 tumors; 5x daily dosing
  effect on My5 tumors: regression of tumors
My5 tumors; once daily, up to 100 mg/kg/day
  effect on My5 tumor growth: no effect
H929 and U266 HMCL
  CREM isoform expression: preferential induction of CREM isoforms
  number of genes with 3-fold or greater change in expression in both H929 and U266: approximately 35 genes

Reference: patent US8822440B2, “Inhibiting cyclin D polypeptides” (Mayo Foundation for Medical Education and Research, priority 2006, dated 2014)
